Test results as given in ChEMBL document CHEMBL1201862, “PubChem BioAssay data set” (2004).
Blank lines part the entries; values can stand above or below the compound they belong to. Activity calls are given as the source filed them.

How the values were obtained:
Format in all cases: functional
[1] = molecular target: T1, Sentrin-specific protease 8 (Homo sapiens, UniProt Q96LD8)
T1 sequence (Q96LD8 whole entry): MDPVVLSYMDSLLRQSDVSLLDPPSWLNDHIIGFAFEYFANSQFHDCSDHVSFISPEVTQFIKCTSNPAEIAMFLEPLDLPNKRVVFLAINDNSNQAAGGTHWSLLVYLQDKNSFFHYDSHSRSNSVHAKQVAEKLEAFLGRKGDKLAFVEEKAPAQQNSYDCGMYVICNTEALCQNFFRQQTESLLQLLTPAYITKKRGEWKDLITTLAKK

CHO-K1 = assay: (§1) Counterscreen for antagonists of the orexin 1 receptor (OX1R; HCRTR1): Homogeneous time resolved fluorescence (HTRF)-based cell-based dose response assay to identify antagonists of the parental CHO-K1 cell line. [Related pubchem assays (depositor defined):AID434989, AID435008, AID463079, AID485270, AID492963, AID492964, AID492965, AID493232, AID504699, AID504701]; conditions: Cricetulus griseus
Orexin receptor type 2 [2] = molecular target: T2, Orexin receptor type 2 (Homo sapiens, UniProt O43614); assay: Counterscreen assay for antagonists of the orexin 1 receptor (OX1R; HCRTR1): Homogeneous Time Resolved Fluorescence (HTRF)-based cell-based dose response assay for antagonists of the orexin 2 receptor (OX2R; HCRTR2), run by assay provider.
T2 sequence (O43614 whole entry): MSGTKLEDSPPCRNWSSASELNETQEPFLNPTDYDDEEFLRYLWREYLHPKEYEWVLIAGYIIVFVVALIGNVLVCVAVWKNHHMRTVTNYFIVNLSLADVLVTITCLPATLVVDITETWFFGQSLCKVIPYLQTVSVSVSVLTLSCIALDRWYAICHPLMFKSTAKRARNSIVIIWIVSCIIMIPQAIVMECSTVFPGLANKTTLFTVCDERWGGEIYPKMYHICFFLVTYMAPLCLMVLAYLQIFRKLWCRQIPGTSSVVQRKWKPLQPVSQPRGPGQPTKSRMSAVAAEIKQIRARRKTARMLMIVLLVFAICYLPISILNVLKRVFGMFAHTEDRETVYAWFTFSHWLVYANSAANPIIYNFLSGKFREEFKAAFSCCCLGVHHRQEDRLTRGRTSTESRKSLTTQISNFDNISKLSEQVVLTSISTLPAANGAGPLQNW

[3] = molecular target: T3, Orexin/Hypocretin receptor type 1 (Homo sapiens, UniProt O43613); assay: (§2) Fluorescence-based cell-based high throughput dose response assay for antagonists of the orexin 1 receptor (OX1R; HCRTR1). [Related pubchem assays (depositor defined):AID434989, AID435008, AID463079, AID485270, AID492963, AID492964, AID492965, AID493232, AID504717, AID504718]
T3 sequence (O43613 whole entry): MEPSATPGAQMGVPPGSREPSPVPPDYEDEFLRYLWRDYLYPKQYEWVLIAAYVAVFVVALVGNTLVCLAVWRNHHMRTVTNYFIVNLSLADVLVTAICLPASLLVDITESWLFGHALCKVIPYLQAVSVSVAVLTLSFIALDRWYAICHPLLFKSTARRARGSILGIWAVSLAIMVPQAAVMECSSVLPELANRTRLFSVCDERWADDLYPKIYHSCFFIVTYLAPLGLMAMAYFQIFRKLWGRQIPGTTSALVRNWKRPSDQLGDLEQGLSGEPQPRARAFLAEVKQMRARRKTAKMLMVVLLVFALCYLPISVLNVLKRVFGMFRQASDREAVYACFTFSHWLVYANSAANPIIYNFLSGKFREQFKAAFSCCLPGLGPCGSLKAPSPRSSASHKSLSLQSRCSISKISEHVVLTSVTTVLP

Orexin receptor type 2 [4] = molecular target: T2, Orexin receptor type 2; assay: Counterscreen assay for antagonists of the orexin 1 receptor (OX1R; HCRTR1): Fluorescence-based cell-based dose response assay for antagonists of the orexin 2 receptor (OX2R; HCRTR2), run by assay provider.
[5] = molecular target: T1, Sentrin-specific protease 8; remark: listed apart in the source
[6] = as §1, with “Fluorescence-based” for “Homogeneous time resolved fluorescence (HTRF)-based”, “cell-based high throughput” for “cell-based”, “CHO” for “CHO-K1”
[7] = molecular target: T3, Orexin/Hypocretin receptor type 1; assay: as §2, with “Homogeneous Time Resolved Fluorescence (HTRF)-based” for “Fluorescence-based”
[8] = molecular target: Dual specificity mitogen-activated protein kinase kinase 2 (Homo sapiens, UniProt P36507); assay: Navigating the Kinome. Panel member name: MAP2K2
Sequence of Dual specificity mitogen-activated protein kinase kinase 2 (P36507 whole entry): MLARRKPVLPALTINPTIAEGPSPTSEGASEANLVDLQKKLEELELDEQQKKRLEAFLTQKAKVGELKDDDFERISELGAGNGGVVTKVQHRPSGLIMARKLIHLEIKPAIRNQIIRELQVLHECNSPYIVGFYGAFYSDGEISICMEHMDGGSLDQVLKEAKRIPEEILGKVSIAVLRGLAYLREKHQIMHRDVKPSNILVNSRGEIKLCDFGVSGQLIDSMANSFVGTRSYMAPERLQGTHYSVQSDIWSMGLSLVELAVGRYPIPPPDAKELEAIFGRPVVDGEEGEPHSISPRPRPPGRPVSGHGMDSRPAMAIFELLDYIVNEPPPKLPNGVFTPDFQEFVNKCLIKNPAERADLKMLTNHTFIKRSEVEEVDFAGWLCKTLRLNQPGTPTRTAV

[9] = molecular target: Mitogen-activated protein kinase kinase kinase kinase 2 (Homo sapiens, UniProt Q12851);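 also: measured as one member of a kinome-wide kinase panel, with MAP4K2 as the panel entry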
[10] = molecular target: Hepatocyte growth factor receptor (Homo sapiens, UniProt P08581);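 also: kinase panel profiling across the kinome, with MET as the panel member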
Sequence of Hepatocyte growth factor receptor (P08581 whole entry): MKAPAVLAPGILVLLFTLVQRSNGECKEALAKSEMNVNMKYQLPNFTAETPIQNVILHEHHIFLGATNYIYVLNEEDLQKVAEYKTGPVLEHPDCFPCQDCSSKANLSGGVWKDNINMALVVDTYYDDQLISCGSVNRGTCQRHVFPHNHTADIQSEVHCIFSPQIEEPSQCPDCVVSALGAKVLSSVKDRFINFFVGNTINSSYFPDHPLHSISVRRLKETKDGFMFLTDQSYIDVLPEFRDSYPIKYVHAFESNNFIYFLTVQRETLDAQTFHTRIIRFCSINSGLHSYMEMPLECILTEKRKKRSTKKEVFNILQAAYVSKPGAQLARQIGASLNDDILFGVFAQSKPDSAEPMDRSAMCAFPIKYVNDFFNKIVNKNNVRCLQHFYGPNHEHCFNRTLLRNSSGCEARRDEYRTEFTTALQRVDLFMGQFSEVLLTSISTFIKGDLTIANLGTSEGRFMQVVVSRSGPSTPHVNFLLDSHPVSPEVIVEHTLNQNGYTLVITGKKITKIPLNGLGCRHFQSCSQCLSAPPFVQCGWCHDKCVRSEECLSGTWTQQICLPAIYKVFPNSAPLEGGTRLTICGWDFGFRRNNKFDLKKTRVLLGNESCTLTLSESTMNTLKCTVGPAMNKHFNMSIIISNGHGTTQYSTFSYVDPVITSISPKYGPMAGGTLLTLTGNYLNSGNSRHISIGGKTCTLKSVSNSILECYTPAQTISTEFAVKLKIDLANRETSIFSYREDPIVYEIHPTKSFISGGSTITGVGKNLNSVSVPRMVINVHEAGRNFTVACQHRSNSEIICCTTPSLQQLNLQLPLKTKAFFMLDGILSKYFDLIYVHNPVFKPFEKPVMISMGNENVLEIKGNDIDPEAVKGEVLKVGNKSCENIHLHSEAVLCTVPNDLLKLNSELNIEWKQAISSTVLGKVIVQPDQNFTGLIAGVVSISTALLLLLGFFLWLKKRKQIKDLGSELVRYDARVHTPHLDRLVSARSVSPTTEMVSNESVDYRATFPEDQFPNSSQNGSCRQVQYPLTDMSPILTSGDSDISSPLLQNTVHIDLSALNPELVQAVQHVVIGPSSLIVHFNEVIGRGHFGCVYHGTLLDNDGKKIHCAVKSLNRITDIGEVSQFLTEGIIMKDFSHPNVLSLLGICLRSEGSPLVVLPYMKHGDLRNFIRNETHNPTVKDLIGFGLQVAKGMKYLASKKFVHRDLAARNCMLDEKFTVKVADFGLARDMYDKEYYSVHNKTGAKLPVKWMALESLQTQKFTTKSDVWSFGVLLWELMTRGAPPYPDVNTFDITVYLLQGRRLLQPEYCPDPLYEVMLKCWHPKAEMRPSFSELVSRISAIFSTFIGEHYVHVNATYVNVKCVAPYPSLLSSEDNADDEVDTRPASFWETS

[11] = molecular target: Serine/threonine-protein kinase pim-1 (Homo sapiens, UniProt P11309)
[12] = molecular target: Cyclin-dependent kinase 8 (Homo sapiens, UniProt P49336); assay: Navigating the Kinome. Panel member name: CDK8
[13] = molecular target: Dual specificity tyrosine-phosphorylation-regulated kinase 1A (Homo sapiens, UniProt Q13627);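 also: measured against DYRK1A as one member of a broad kinome profiling panel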
LIM domain kinase 1 = LIM domain kinase 1 (Homo sapiens, UniProt P53667); assay: Navigating the Kinome. Panel member name: LIMK1
Sequence of LIM domain kinase 1 (P53667 whole entry, the tested form may be a part): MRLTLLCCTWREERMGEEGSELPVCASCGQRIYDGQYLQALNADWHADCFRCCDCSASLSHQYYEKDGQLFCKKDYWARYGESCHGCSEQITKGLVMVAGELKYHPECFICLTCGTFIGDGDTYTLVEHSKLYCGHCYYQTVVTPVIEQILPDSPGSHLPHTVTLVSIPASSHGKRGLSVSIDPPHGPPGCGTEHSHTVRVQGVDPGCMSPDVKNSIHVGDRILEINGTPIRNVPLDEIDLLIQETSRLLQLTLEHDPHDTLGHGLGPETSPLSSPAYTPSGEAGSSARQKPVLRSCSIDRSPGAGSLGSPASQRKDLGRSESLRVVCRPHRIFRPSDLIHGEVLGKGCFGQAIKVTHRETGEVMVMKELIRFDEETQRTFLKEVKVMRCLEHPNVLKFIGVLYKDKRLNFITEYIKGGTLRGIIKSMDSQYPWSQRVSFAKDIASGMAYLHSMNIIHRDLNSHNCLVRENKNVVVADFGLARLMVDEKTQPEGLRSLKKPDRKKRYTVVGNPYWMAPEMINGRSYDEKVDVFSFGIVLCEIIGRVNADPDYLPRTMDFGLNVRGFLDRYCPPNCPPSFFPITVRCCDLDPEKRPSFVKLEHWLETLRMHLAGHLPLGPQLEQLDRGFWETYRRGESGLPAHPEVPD

[14] = molecular target: Dual specificity protein kinase CLK4 (Homo sapiens, UniProt Q9HAZ1)
[15] = molecular target: Serine/threonine-protein kinase Chk1 (Homo sapiens, UniProt O14757);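 also: measured as one member of a kinome-wide kinase profiling panel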
Sequence of Serine/threonine-protein kinase Chk1 (O14757 whole entry): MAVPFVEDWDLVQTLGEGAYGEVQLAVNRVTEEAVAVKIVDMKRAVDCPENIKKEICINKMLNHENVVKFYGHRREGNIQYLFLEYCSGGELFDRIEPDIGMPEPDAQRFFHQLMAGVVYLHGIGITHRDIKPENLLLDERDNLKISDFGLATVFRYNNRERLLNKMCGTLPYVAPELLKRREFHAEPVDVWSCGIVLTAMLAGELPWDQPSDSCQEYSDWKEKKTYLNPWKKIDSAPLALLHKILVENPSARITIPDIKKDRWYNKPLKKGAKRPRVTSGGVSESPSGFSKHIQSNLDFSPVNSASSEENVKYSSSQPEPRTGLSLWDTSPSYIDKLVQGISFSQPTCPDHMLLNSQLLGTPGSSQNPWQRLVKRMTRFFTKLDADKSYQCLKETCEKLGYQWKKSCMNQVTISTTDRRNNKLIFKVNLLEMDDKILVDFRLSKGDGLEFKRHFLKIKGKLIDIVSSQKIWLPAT

[16] = molecular target: Interleukin-1 receptor-associated kinase 4 (Homo sapiens, UniProt Q9NWZ3)
Sequence of Interleukin-1 receptor-associated kinase 4 (Q9NWZ3 whole entry): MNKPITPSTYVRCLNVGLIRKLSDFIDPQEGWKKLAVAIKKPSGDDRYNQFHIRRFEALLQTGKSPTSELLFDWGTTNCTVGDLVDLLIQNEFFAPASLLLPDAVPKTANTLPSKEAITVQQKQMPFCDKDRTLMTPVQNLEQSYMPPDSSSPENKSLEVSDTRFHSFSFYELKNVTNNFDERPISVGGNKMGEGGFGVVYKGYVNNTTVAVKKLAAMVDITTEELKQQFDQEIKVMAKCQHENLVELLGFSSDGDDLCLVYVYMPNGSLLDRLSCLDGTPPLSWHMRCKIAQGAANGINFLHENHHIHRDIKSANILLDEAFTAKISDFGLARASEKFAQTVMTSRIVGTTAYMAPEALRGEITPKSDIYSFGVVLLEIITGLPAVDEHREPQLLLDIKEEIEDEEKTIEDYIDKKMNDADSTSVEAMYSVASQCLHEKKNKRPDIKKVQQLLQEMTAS

[17] = molecular target: Cyclin-dependent kinase 1 (Homo sapiens, UniProt P06493);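 also: Kinome-wide panel profiling, with the target listed as panel member CDC2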
[18] = molecular target: Melanin-concentrating hormone receptor 1 (Homo sapiens, UniProt Q99705); assay: Late-stage fluorescence-based counterscreen for antagonists of the G-protein coupled receptor 7 (GPR7): cell-based dose response assay to identify antagonists of the melanin-concentrating hormone receptor 1 (MCHR1) Set 5.
[19] = molecular target: Neuropeptides B/W receptor type 1 (Homo sapiens, UniProt P48145); assay: human NPBW1 receptor blockade, IC50 – cell-based, fluorescence, dose response, set 5, late-stage follow-up (AID 588566)
Sequence of Neuropeptides B/W receptor type 1 (P48145 whole entry): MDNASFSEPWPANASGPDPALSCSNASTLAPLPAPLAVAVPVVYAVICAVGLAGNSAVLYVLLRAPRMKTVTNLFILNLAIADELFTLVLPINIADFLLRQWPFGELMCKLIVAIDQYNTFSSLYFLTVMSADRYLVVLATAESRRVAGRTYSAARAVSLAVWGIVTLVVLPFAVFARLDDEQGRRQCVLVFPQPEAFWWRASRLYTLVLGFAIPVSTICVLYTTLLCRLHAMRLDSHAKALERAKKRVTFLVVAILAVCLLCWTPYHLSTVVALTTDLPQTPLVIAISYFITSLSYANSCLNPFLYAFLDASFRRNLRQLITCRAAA

[20] = molecular target: ALK tyrosine kinase receptor (Homo sapiens, UniProt Q9UM73);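 also: ALK tested as one member of a kinase panel screen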
Wee1-like protein kinase = Wee1-like protein kinase (Homo sapiens, UniProt P30291); assay: Navigating the Kinome. Panel member name: WEE1
[21] = molecular target: Cyclin-dependent kinase 19 (Homo sapiens, UniProt Q9BWU1); assay: Navigating the Kinome. Panel member name: CDC2L6
Aurora kinase B = Aurora kinase B (Homo sapiens, UniProt Q96GD4)
Aurora kinase A = Aurora kinase A (Homo sapiens, UniProt O14965);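 also: value from the Navigating the Kinome kinase panel profiling, panel entry STK6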
[22] = molecular target: Multidrug resistance protein CDR2 (Candida albicans (strain SC5314 / ATCC MYA-2876) (Yeast), UniProt P78595); assay: inhibition of Nile Red efflux via Candida CDR2 – S. cerevisiae AD1-8u, singleplex, Cherry Pick1 hits, dose response (AID 588604)
[23] = molecular target: Benomyl/methotrexate resistance protein (Candida albicans, UniProt P28873); assay: Candida albicans Mdr1 pump inhibition curves – singleplex, Cherry Pick1 hits, dose response (AID 588608)
[24] = molecular target: Mitogen-activated protein kinase 13 (Homo sapiens, UniProt O15264)
Sequence of Mitogen-activated protein kinase 13 (O15264 whole entry): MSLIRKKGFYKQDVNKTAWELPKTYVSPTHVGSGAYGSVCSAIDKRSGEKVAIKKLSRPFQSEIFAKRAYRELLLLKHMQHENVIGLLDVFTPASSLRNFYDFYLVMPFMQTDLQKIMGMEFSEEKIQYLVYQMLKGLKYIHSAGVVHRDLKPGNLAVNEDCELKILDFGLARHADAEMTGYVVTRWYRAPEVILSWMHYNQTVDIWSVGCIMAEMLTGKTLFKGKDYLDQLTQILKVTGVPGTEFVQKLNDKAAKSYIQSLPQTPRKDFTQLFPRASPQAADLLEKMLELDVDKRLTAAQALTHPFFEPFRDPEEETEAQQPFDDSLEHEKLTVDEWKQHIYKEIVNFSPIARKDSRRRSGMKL

- Ki [8]: 3.16 µM (active)
- Ki [9]: 2.51 µM (active)
- Ki [10]: 1.26 µM (active)
- Ki [11]: 2 µM (active)
- Ki [12]: 3.16 µM (active)
Structure (SMILES): Oc1ccc(Cl)cc1C1=NNC(c2ccc3c(c2)OCCO3)C1 (centres undefined)

- Ki [21]: 2 µM (active)
- Ki (Aurora kinase B): 0.01 µM (active)
- Ki (Aurora kinase A): 0.126 µM (active)
Structure (SMILES): Cc1ccc(F)c(NC(=O)Nc2ccc(-c3cc(CO)c(F)c4[nH]nc(N)c34)cc2)c1

- Ki [24]: > 7.94 µM (inactive)
Structure (SMILES): Cc1cccc(NC(=O)Nc2ccc(-c3ccc4nccnc4c3N)cc2)c1

Continued, compound first:

Structure (SMILES): CCOc1cc(C(=S)N2CCOCC2)cc(Br)c1OS(=O)(=O)c1ccccc1
- IC50 [1]: 8.96 µM (active)
- IC50 (CHO-K1): > 66.2 µM (inactive)
- IC50 (Orexin receptor type 2 [2]): > 50 µM (inactive)
- IC50 [3]: 8.68 µM (active)
- IC50 (Orexin receptor type 2 [4]): 6.2 µM (active)
- IC50 [5]: 8.6 µM (active)
- IC50 [6]: > 49.8 µM (inactive)
- IC50 [7]: 4.56 µM (active)

Structure (SMILES): O=C(O)c1cnc2sccn2c1=O
- Ki [13]: 63.1 µM (active)
- Ki (LIM domain kinase 1): 50.1 µM (active)
- Ki [14]: 39.8 µM (active)
- Ki [15]: 39.8 µM (active)

Structure (SMILES): CS(=O)(=O)Nc1ccccc1-c1ccc2c(c1)Nc1ccccc1NC2=O
- Ki [16]: 3.98 µM (active)
- Ki [17]: 7.94 µM (active)

Structure (SMILES): CCOc1ccc(Oc2c(Cl)c(C)nn(Cc3cccc4ccccc34)c2=O)cc1
- IC50 [18]: 14.8 µM (inactive)
- IC50 [19]: 1.88 µM (active)

Structure (SMILES): CCN1CCN(c2ccc(Nc3nccc(Nc4ccc5[nH]ncc5c4)n3)cc2)CC1
- Ki [20]: 1 µM (active)
- Ki (Wee1-like protein kinase): 0.158 µM (active)

Structure (SMILES): CCN(CC)c1ccc(/C=C/c2cc(-c3ccccc3)c3ccccc3n2)cc1
- EC50 [22]: 16.1 µM (active)
- EC50 [23]: 3.32 µM (active)
